Measurements as given in paper PMC10714399, “Open Source Antibiotics: Simple Diarylimidazoles Are Potent against Methicillin-Resistant Staphylococcus aureus” (ACS Infectious Diseases, 2023).
≈ marks a conversion by molar mass, not a printed value. One block for each compound: values may come before it.

Experiments:
[1] = tested on: molecular beacon DNA; test: DNA binding assay (molecular beacon melt curve); settings: compound 0-5 μM, DNA 400 nM
Text: An attempt to characterize the mechanism of toxicity led to testing compounds’ interactions with DNA molecular beacons, which are short strands of DNA tagged with a donor–acceptor pair of fluorophores. The proximity between the fluorophores when the DNA strand is correctly folded results in no fluorescence from the donor; should a compound interfere with DNA folding, a change in the melting temperature will be observed.
A molecular beacon DNA sequence [FAM] CGTATATATATATTTTTATATATATACG [TAM] (Eurofin Genomics, Germany) labeled with fluorescein–tetramethylrhodamine donor–acceptor pair was dissolved in nuclease-free water at 100 μM, aliquoted, and kept frozen at −20 °C.
A working 2 μM DNA solution and compound dilution at 2 and 20 μM in hybridization buffer (10 mM Tris, 1 mM EDTA, 50 mM NaCl, 1.5 mM MgCl2 pH 8) was made. DNA was annealed by heating up to 95 °C on a heat block and allowing to cool down to room temperature. […]
Measurements on the prepared plates were made on an Applied Biosystems 7500/7500 FastReal-Time PCR System (ThermoFisher, UK). A standard melt curve experiment was setup where temperature was ramped up from 15 to 90 °C at a 1% step gradient and fluorescence was monitored for filters 1 (FAM) and 3 (TAMRA). Fluorescence first derivatives against temperature were exported to Microsoft Excel and peak fitting was done using Origin 2022B.

[2] = HEK293 toxicity, 96-well dose-response (UCL; MTT or resazurin, with or without recovery); type: cell-based, human; settings: human, HEK293 cells; across protocol variations (recovery yes/no, MTT/resazurin); read-out: CC50 HEK293
Description: The importance of balancing potency vs MRSA and cytotoxicity led us to examine a subset of compounds more thoroughly for toxicity against human embryonic kidney cell line HEK293. […] Dmax is a parameter that quantifies toxicity at the highest tested concentration (32 μg/mL for all compounds), calculated as reciprocal percentage of viable cells (100 – viability%), where cells either were allowed to recover or viability was measured immediately after treatment. […] Our efforts focused on trying to replicate the original toxicity experiments (by CO-ADD) with tamoxifen using a protocol modified for use with 96-well plates. Given the variability of protocols and results in the literature,[28] it was important to compare with a standard protocol we have reliably used in our own laboratories.[29]−[33] […] Truly “non-toxic” compounds might be expected to show Dmax < 50% for all experiment variations, e.g., 861. […] A large spread of Dmax values comparing recovery and non-recovery conditions larger than 20% is perhaps indicative of a mechanism of toxicity that persists beyond exposure, i.e., cytotoxic compounds that continue to induce toxicity as cells recover and restart dividing, for example, compounds 865, 870, 871, 980, and 981. […] This variability could be driven by interference of the compounds with the fluorescence readout or resorufin build-up as previously described.[27]
HEK293 cells (ATCC, UK) at passage 32 were a kind gift from Dr. Ben Allsop from the Translational Research Office at University College London. Cells were tested for mycoplasma using a MycoAlert Detection Kit (Lonza, Switzerland) as per manufacturer instructions, frozen stocks were stored in liquid nitrogen, and cells were re-tested whenever a new aliquot was thawed.
Cells were maintained in DMEM (Sigma-Aldrich, UK) supplemented with 10% heat-inactivated FBS (Sigma-Aldrich, UK), 1% GlutaMax (ThermoFisher, UK), and 1% sodium pyruvate (Lonza, UK) without antibiotics in an incubator at 37 °C and 5% CO2. Media was changed every 2 days, and cells were passaged every 3–4 days at a subcultivation ratio of 1:10, by detaching the cells with phenol-free TrypLE Express (ThermoFisher, UK), after washing with HBSS Ca^2+/Mg^2+ (ThermoFisher, UK). Up to 55 passages were used throughout the experiments.
(a) Cell seeding: At subculture, a dilute solution of cells was counted using Trypan Blue (Sigma-Aldrich, UK) and a hemocytometer. Cells were further diluted to 7000 or 50 000 cells/mL for experiments.
For recovery experiments, 700 cells (100 μL) were seeded in 96-well plates and incubated for 48 h while cells reached exponential phase.
For non-recovery experiments, 5000 cells (100 μL) were seeded in 96-well plates and incubated for 48 h while cells reached confluence. This is the same number of cells as per the CO-ADD protocol where 384-well plates were used, but we extended the growth time to 48 h to produce a similar confluency.
Stock solutions were diluted 100 times (to 1% DMSO) to 32 μg/mL in full medium (vortexed briefly) and then serially diluted using a digital pipet (Explorer, Eppendorf, Germany) at a dilution factor of 2 to a final concentration of […].
(c) Dosing experiments: At the specified time after seeding, media was removed from cells, cells were washed with HBSS Ca^2+/Mg^2+ (100 μL), and 100 μL of diluted compounds were added as per Supporting Information - Biology, Figure S4, and incubated for 24 h.
After treatment, solutions were removed, and cells were washed with HBSS Ca^2+/Mg^2+. For non-recovery experiments, viability was determined immediately as described below.
For recovery experiments, fresh media was added to plates (100 μL) and cells were returned to the incubator for another 72 h, after which viability was recorded as described below.
i. MTT assay: 3-[4,5-Dimethylthiazol-2-yl]-2,5-diphenyltetrazolium bromide (MTT) (Sigma-Aldrich, UK) was dissolved in sterile PBS at 5 mg/mL with sonication (20 min), protected from light. […]

[3] = in vitro; type: cell-based; settings: human
Description: HEK293 cells were counted manually in a Neubauer haemocytometer and then plated in the 384-well plates containing the compounds to give a density of 5000 cells/well in a final volume of 50 µL. DMEM supplemented with 10% FBS was used as growth media and the cells were incubated together with the compounds for 20 h at 37 °C in 5% CO2.
Cytotoxicity (or cell viability) was measured by fluorescence, ex: 560/10 nm, em: 590/10 nm (F560/590), after addition of 5 µL of 25 µg/mL resazurin (2.3 µg/mL final concentration) and after incubation for further 3 h at 37 °C in 5% CO2. The fluorescence intensity was measured using a Tecan M1000 Pro monochromator plate reader, using automatic gain calculation. […]
Human whole blood was washed three times with 3 volumes of 0.9% NaCl and then resuspended in same to a concentration of 0.5 x 10^8 cells/mL, as determined by manual cell count in a Neubauer haemocytometer. […]
Haemolysis was determined by measuring the supernatant absorbance at […] (OD405).
(§1) The absorbance was measured using a Tecan M1000 Pro monochromator plate reader.
HC10 and HC50 (concentration at 10% and 50% haemolysis, respectively) were calculated by curve fitting the inhibition values vs. log(concentration) using a sigmoidal dose-response function with variable fitting values for top, bottom and slope. […]
(§2) Reading Plates - Haemolysis Clear 384w Corning 3680 […]

[4] = tested on: human red blood cells; type: cell-based; settings: red cells of human, 20 h
Description: as §1
(1 picture or pasted object on this page, not shown here)

[5] = tested on: Cryptococcus neoformans H99 ATCC 208821; test: CO-ADD antifungal assay, C. neoformans; type: cell-based; settings: ATCC208821
Description: Hit Confirmation of active compounds by whole cell growth inhibition assays was conducted as an 8-point dose response to determine the Minimum Inhibitory Concentration (MIC), in duplicate (n=2). The inhibition of growth is measured against those microorganisms that […]
Included in the Hit Confirmation were 5 bacteria: Escherichia coli, Klebsiella pneumoniae, Acinetobacter baumannii, Pseudomonas aeruginosa and Staphylococcus aureus, and 2 fungi Candida albicans and Cryptococcus neoformans.
In addition to determining MIC, active compounds were counter screened for cytotoxicity against a human embryonic kidney cell line, HEK293, by determining their CC50 value. The compounds were also screened for haemolysis of human red blood cells.
Assay Parameters Bacteria Fungi HEK293 Haemolysis […]
Duplicate (n=2) Duplicate (n=2) Duplicate (n=2) Duplicate (n=2)
QC Control MIC: Control MIC: Control CC50: Control HC10:
Non-Binding Non-Binding TC, 384-well Polypropylene […]
Fungi strains were cultured for 3 days on Yeast Extract-Peptone Dextrose (YPD) agar at 30 °C. A yeast suspension of 1 x 10^6 to 5 x 10^6 CFU/mL (as determined by OD530) was prepared from five colonies. […]
In both cases, the percentage of growth inhibition was calculated for each well, using the negative control (media only) and positive control (fungi without inhibitors) on the same plate. […]
as §2

effect on DNA molecular beacon melting temperature [1]: dose–response behavior
Compound: COc1cccc2c1C(=O)c1c(O)c3c(c(O)c1C2=O)C[C@@](O)(C(=O)CO)C[C@@H]3O[C@H]1C[C@H](N)[C@H](O)[C@H](C)O1 [doxorubicin]

Compound: CC/C(=C(\c1ccccc1)c1ccc(OCCN(C)C)cc1)c1ccccc1 [tamoxifen, reference compound]
CC50 at 24 h [2]: 5.3 to 15.5 µg/mL (≈ 14.3 to 41.7 µM) | CC50 at 20 h [3]: 9 µg/mL (≈ 24.2 µM)

Compound: CC[C@H](C)[C@H](NC(=O)CN)C(=O)NCC(=O)N[C@@H](C)C(=O)N[C@H](C(=O)N[C@@H](CC(C)C)C(=O)N[C@@H](CCCCN)C(=O)N[C@H](C(=O)N[C@@H](CC(C)C)C(=O)N[C@H](C(=O)N[C@H](C(=O)NCC(=O)N[C@@H](CC(C)C)C(=O)N1CCC[C@H]1C(=O)N[C@@H](C)C(=O)N[C@@H](CC(C)C)C(=O)N[C@H](C(=O)N[C@@H](CO)C(=O)N[C@@H](Cc1c[nH]c2ccccc12)C(=O)N[C@H](C(=O)N[C@@H](CCCCN)C(=O)N[C@@H](CCCNC(=N)N)C(=O)N[C@@H](CCCCN)C(=O)N[C@@H](CCCNC(=N)N)C(=O)N[C@@H](CCC(N)=O)C(=O)N[C@@H](CCC(N)=O)C(N)=O)[C@@H](C)CC)[C@@H](C)CC)[C@@H](C)O)[C@@H](C)O)C(C)C)C(C)C [Melittin]
HC10 (concentration at 10% haemolysis) [4]: 2.7 µg/mL

Compound: OC(Cn1cncn1)(Cn1cncn1)c1ccc(F)cc1F [Fluconazole]
MIC [5]: 8 µg/mL
